Measured values from patent publication US7153855B2, “Pyrazolopyridinyl pyrimidine therapeutic compounds” (SmithKline Beecham Corporation, priority 2001, dated 2006).

tested on: HSV-1; experiment: HSV-1 infection of Vero 76 cells, viral DNA detected by hybridization capture (chemiluminescence); assay type: cell-based; conditions: Human alphaherpesvirus 1; HSV-1 in Vero 76 cells, MOI=0.001, compounds incubated 40–48 hours at 37° C.; read-out: IC50
Excerpt: In the following example, “MEM” means Minimal Essential Media; “FBS” means Fetal Bovine Serum; “NP40” and “Igepal” are detergents; “MOI” means Multiplicity of Infection; “NaOH” means sodium hydroxide; “MgCl2” means magnesium chloride; “dATP” means deoxyadenosine 5′ triphosphate; “dUTP” means deoxyuridine 5′ triphosphate; “dCTP” means dexoxycytidine 5′ triphosphate; “dGTP” means deoxyguanosine 5′ triphosphate; “GuSCN” means Guanidinium thiocyanate; “EDTA” means ethylenediamine tetraacetic acid; “TE” means Tris-EDTA; “SCC” means sodium chloride/sodium citrate; “APE” means a solution of ammonia acetate, ammonia phosphate, EDTA; “PBS” means phosphate buffered saline; and “HRP” means horseradish peroxidase.
Vero 76 cells were maintained in MEM with Earle's salts, L-glutamine, 8% FBS (Hyclone, A-1111-L) and 100 units/mL Penicillin-100 μg/mL Streptomycin. For assay conditions, FBS was reduced to 2%. Cells are seeded into 96-well tissue culture plates at a density of 5×10^4 cells/well after being incubated for 45 min at 37° C. in the presence of HSV-1 or HSV-2 (MOI=0.001). Test compounds are added to the wells and the plates are incubated at 37° C. for 40–48 hours. Cell lysates are prepared as follows: media was removed and replaced with 150 μL/well 0.2 N NaOH with 1% Igepal CA 630 or NP-40. Plates were incubated up to 14 days at room temperature in a humidified chamber to prevent evaporation.
For the detection probe, a gel-purified, digoxigenin-labeled, 710-bp PCR fragment of the HSV UL-15 sequence was utilized. PCR conditions included 0.5 μM primers, 180 μM dTTP, 20 μM dUTP-digoxigenin (Boehringer Mannheim 1558706), 200 μM each of dATP, dCTP, and dGTP, 1×PCR Buffer II (Perkin Elmer), 2.5 mM MgCl2, 0.025 units/μL of AmpliTaq Gold polymerase (Perkin Elmer), and 5 ng of gel-purified HSV DNA per 100 μL Extension conditions were 10 min at 95° C., followed by 30 cycles of 95° C. for 1 min, 55° C. for 30 sec, and 72° C. for 2 min. The amplification was completed with a 10-min incubation at 72° C. Primers were selected to amplify a 728 bp probe spanning a section of the HSV1 UL15 open reading frame (nucleotides 249–977). Single-stranded transcripts were purified with Promega M13 Wizard kits. The final product was mixed 1:1 with a mixture of 6 M GuSCN, 100 mM EDTA and 200 μg/mL herring sperm DNA and stored at 4° C.
The capture DNA plasmid (HSV UL13 region in pUC) was linearized by cutting with Xba I, denatured for 15 min at 95° C. and diluted immediately into Reacti-Bind DNA Coating Solution (Pierce, 17250, diluted 1:1 with TE buffer, pH 8) at 1 ng/μL 75 μL/well were added to Corning (#3922 or 9690) white 96-well plates and incubated at room temperature for at least 4 hrs before washing twice with 300 μL/well 0.2×SSC/0.05% Tween-20 (SSC/T buffer). The plates were then incubated overnight at room temperature with 150 μL/well 0.2 N NaOH, 1% IGEPAL and 10 μg/mL herring sperm DNA.
Twenty-seven (27) μL of cell lysate was combined with 45 μL of hybridization solution (final concentration: 3M GuSCN, 50 mM EDTA, 100 μg/ml salmon sperm DNA, 5×Denhardt's solution, 0.25×APE, and 5 ng of the digoxigenin-labeled detection probe). APE is 1.5 M NH4-acetate, 0.15 M NH4H2 phosphate, and 5 mM EDTA adjusted to pH 6.0. Mineral oil (50 μL) was added to prevent evaporation. The hybridization plates were incubated at 95° C. for 10 minutes to denature the DNA, then incubated at 42° C. overnight. The wells were washed 6× with 300 μL/well SSC/T buffer then incubated with 75 μL/well anti-digoxigenin-HRP-conjugated antibody (Boehringer Mannheim 1207733, 1:5000 in TE) for 30 min at room temperature. The wells were washed 6× with 300 μL/well with PBS/0.05% Tween-20 before 75 μL/well SuperSignal LBA substrate (Pierce) was added. The plates were incubated at room temperature for 30 minutes and chemiluminescence was measured in a Wallac Victor reader.
The following results were obtained for HSV-1.

IC50 | SMILES
1.5 µM | Nc1nccc(-c2c(-c3cccc(Br)c3)nn3c(NC4CCCC4)cccc23)n1 [Example 27, N-[3-(2-Amino-4-pyrimidinyl)-2-(3-bromophenyl)pyrazolo[1,5-a]pyridin-7-yl]-N-cyclopentylamine]
5 µM | Nc1nccc(-c2c(-c3cccc(Br)c3)nn3c(N4CCCC4)cccc23)n1 [Example 28, 4-[2-(3-Bromophenyl)-7-(1-pyrrolidinyl)pyrazolo[1,5-a]pyridin-3-yl]-2-pyrimidinamine]
3 µM | c1ccc(-c2cccc(-c3nn4c(NC5CCCC5)cccc4c3-c3ccnc(NC4CCCC4)n3)c2)cc1 [Example 29, 2-[1,1′-Biphenyl]-3-yl-N-cyclopentyl-3-[2-(cyclopentylamino)-4-pyrimidinyl]pyrazolo[1,5-a]pyridin-7-amine]
0.8 µM | c1ccc(-c2cccc(-c3nn4c(N5CCCC5)cccc4c3-c3ccnc(NC4CCCC4)n3)c2)cc1 [Example 30, 4-[2-[1,1′-Biphenyl]-3-yl-7-(1-pyrrolidinyl)pyrazolo[1,5-a]pyridin-3-yl]-N-cyclopentyl-2-pyrimidinamine]
2 µM | c1cc(-c2ccncc2)cc(-c2nn3c(NC4CCCC4)cccc3c2-c2ccnc(NC3CCCC3)n2)c1 [Example 31, N-Cyclopentyl-3-[2-(cyclopentylamino)-4-pyrimidinyl]-2-[3-(4-pyridinyl)phenyl]pyrazolo[1,5-a]pyridin-7-amine]
0.6 µM | c1cc(-c2ccsc2)cc(-c2nn3c(NC4CCCC4)cccc3c2-c2ccnc(NC3CCCC3)n2)c1 [Example 32, N-Cyclopentyl-3-[2-(cyclopentylamino)-4-pyrimidinyl]-2-[3-(3-thienyl)phenyl]pyrazolo[1,5-a]pyridin-7-amine]
0.8 µM | c1cc(-c2cccs2)cc(-c2nn3c(NC4CCCC4)cccc3c2-c2ccnc(NC3CCCC3)n2)c1 [Example 33, N-Cyclopentyl-3-[2-(cyclopentylamino)-4-pyrimidinyl]-2-[3-(2-thienyl)-phenyl]pyrazolo[1,5-a]pyridin-7-amine]
0.6 µM | Nc1cccc(-c2nn3c(NC4CCCC4)cccc3c2-c2ccnc(NC3CCCC3)n2)c1 [Example 34, 2-(3-Aminophenyl)-N-cyclopentyl-3-[2-(cyclopentylamino)-4-pyrimidinyl]pyrazolo[1,5-a]pyridin-7-amine]
2 µM | CC(=O)Nc1cccc(-c2nn3c(NC4CCCC4)cccc3c2-c2ccnc(NC3CCCC3)n2)c1 [Example 35, N-(3-{7-(Cyclopentylamino)-3-[2-(cyclopentylamino)-4-pyrimidinyl]pyrazolo[1,5-a]pyridin-2-yl}phenyl)acetamide]
3 µM | CS(=O)(=O)Nc1cccc(-c2nn3c(NC4CCCC4)cccc3c2-c2ccnc(NC3CCCC3)n2)c1 [Example 36, N-(3-{7-(Cyclopentylamino)-3-[2-(cyclopentylamino)-4-pyrimidinyl]-pyrazolo[1,5-a]pyridin-2-yl}phenyl)methanesulfonamide]
3 µM | Nc1cccc(-c2nn3c(N4CCCC4)cccc3c2-c2ccnc(NC3CCCC3)n2)c1 [Example 37, 4-[2-(3-Aminophenyl)-7-(1-pyrrolidinyl)pyrazolo[1,5-a]pyridin-3-yl]-N-cylopentyl-2-pyrimidinamine]
0.3 µM | c1ccc(-c2nn3c(NC4CCCC4)cccc3c2-c2ccnc(NC3CCCC3)n2)cc1 [Example 38, N-Cyclopentyl-3-[2-(cyclopentylamino)-4-pyrimidinyl]-2-phenylpyrazolo-[1,5-a]pyridin-7-amine]
0.5 µM | N#Cc1cccc(-c2nn3c(NC4CCCC4)cccc3c2-c2ccnc(NC3CCCC3)n2)c1 [Example 39, 3-{7-(Cyclopentylamino)-3-[2-(cyclopentylamino)-4-pyrimidinyl]pyrazolo[1,5-a]pyridin-2-yl}benzonitrile]
2.5 µM | NC(=O)c1cccc(-c2nn3c(NC4CCCC4)cccc3c2-c2ccnc(NC3CCCC3)n2)c1 [Example 40, 3-{7-(Cyclopentylamino)-3-[2-(cyclopentylamino)-4-pyrimidinyl]-pyrazolo[1,5-a]pyridin-2-yl}benzamide]
3.5 µM | O=C(O)c1cccc(-c2nn3c(NC4CCCC4)cccc3c2-c2ccnc(NC3CCCC3)n2)c1 [Example 41, 3-{7-(Cyclopentylamino)-3-[2-(cyclopentylamino)-4-pyrimidinyl]pyrazolo-[1,5-a]pyridin-2-yl}benzoic acid]
1.4 µM | COc1ccc(-c2nn3c(NC4CCCC4)cccc3c2-c2ccnc(NC3CCCC3)n2)cc1Br [Example 42, N-{4-[2-(3-Bromo-4-methoxyphenyl)-7-(cyclopentylamino)pyrazolo[1,5-a]pyridin-3-yl]-2-pyrimidinyl}-N-cyclopentylamine]
0.5 µM | Clc1ccc(-c2nn3c(NC4CCCC4)cccc3c2-c2ccnc(NC3CCCC3)n2)cc1Br [Example 43, 2-(3-Bromo-4-chlorophenyl)-N-cyclopentyl-3-[2-(cyclopentylamino)-4-pyrimidinyl]pyrazolo[1,5-a]pyridin-7-amine]
1.8 µM | Nc1cc(-c2nn3c(NC4CCCC4)cccc3c2-c2ccnc(NC3CCCC3)n2)ccc1Cl [Example 44, 2-(3-Amino-4-chlorophenyl)-N-cyclopentyl-3-[2-(cyclopentylamino)-4-pyrimidinyl]pyrazolo[1,5-a]pyridin-7-amine]
22 µM | CCCCNc1nccc(-c2c(-c3ccc(NCc4ccccc4)cc3)nn3c(NCCCC)cccc23)n1 [Example 45, 2-[4-(Benzylamino)phenyl]-N-butyl-3-[2-(butylamino)-4-pyrimidinyl]-pyrazolo[1,5-a]pyridin-7-amine]
0.2 µM | Cc1cccc(-c2nn3c(NC4CCCC4)cccc3c2-c2ccnc(NC3CCCC3)n2)c1 [Example 46, N-Cyclopentyl-3-[2-(cyclopentylamino)-4-pyrimidinyl]-2-(3-methylphenyl)pyrazolo[1,5-a]pyridin-7-amine]
> 40 µM | Cc1cccc(-c2nn3c(NC4CCCC4)cccc3c2-c2nc(NC3CCCC3)nc(C)c2C)c1 [Example 48, N-cyclopentyl-3-[2-(cyclopentylamino)-5,6-dimethyl-4-pyrimidinyl]-2-(3-methylphenyl)pyrazolo[1,5-a]pyridin-7-amine]
0.5 µM | Cc1cccc(-c2nn3c(NC(C)C)cccc3c2-c2ccnc(NC3CCCC3)n2)c1 [Example 49, 3-[2-(Cyclopentylamino)-4-pyrimidinyl]-N-isopropyl-2-(3-methylphenyl)pyrazolo[1,5-a]pyridin-7-amine]
2.5 µM | COc1cccc(-c2nn3c(Cl)cccc3c2-c2ccnc(NC3CCCC3)n2)c1 [Example 50, 4-[7-Chloro-2-(3-methoxyphenyl)pyrazolo[1,5-a]pyridin-3-yl]-N-cyclopentyl-2-pyrimidinamine]
0.21 µM | COc1cccc(-c2nn3c(NC4CCCC4)cccc3c2-c2ccnc(NC3CCCC3)n2)c1 [Example 51, N-Cyclopentyl-3-[2-(cyclopentylamino)-4-pyrimidinyl]-2-(3-methoxyphenyl)pyrazolo[1,5-a]pyridin-7-amine]
0.56 µM | COc1cccc(-c2nn3c(NC(C)C)cccc3c2-c2ccnc(NC3CCCC3)n2)c1 [Example 52, 3-[2-(Cyclopentylamino)-4-pyrimidinyl]-N-isopropyl-2-(3-methoxyphenyl)pyrazolo[1,5-a]pyridin-7-amine]
